In PMC11435058, “Synthesis of New Thiazole-Privileged Chalcones as Tubulin Polymerization Inhibitors with Potential Anticancer Activities” (Pharmaceuticals, 2024):

Key:
[1] = system: MDA-MB-468; experiment: NCI-60 anticancer screen (SRB; single dose and five doses); type: cell-based, human
Experimental: The methodology of the NCI anticancer screening has been described in detail elsewhere (http://www.dtp.nci.nih.gov). For detailed information, see Appendix A in the Supplementary Materials.
4.2.1. Screening of the anticancer activity against a panel of 60 cell Lines.
The methodology of the NCI anticancer screening has been described in detail elsewhere (http://www.dtp.nci.nih.gov.) Briefly, the primary anticancer assay was performed at approximately 60 human tumor cell lines panel derived from nine neoplastic diseases, in accordance with the protocol of the Drug Evaluation Branch, National Cancer Institute, Bethesda. Tested compounds were added to the culture at a single concentration (10μM) and the cultures were incubated for 48 h. End -point determinations were made with a protein binding dye, SRB. Results for each tested compound was reported as the percent of growth of the treated cells when compared to the untreated control cells. The percentage growth was evaluated spectrophotometrically versus controls not treated with test agents. […]

[2] = system: OVCAR-3; experiment: cells; details: Homo sapiens
[3] = system: HL-60(TB); experiment: NCI-60 anticancer screen (SRB; single dose and five doses); details: Homo sapiens
[4] = system: A549/ATCC; experiment: as above; details: Homo sapiens
[5] = system: HOP-62; experiment: as above; details: Homo sapiens
[6] = system: HOP-92; experiment: as above; details: Homo sapiens
[7] = system: NCI-H460; experiment: as above; details: Homo sapiens
[8] = system: HT29; experiment: as above; details: Homo sapiens
[9] = system: KM12; experiment: as above; details: Homo sapiens
[10] = system: SW-620; experiment: as above; details: Homo sapiens
[11] = system: SF-295; experiment: as above; details: Homo sapiens
[12] = system: SNB-75; experiment: as above
[13] = system: U251; experiment: as above; details: Homo sapiens
[14] = system: MDA-MB-435; experiment: as above; details: Homo sapiens
[15] = system: SK-MEL-2; experiment: as above; details: Homo sapiens
[16] = system: SK-MEL-28; experiment: as above; details: Homo sapiens
[17] = system: UACC-62; experiment: as above; details: Homo sapiens
[18] = system: IGROV1; experiment: as above; details: Homo sapiens
[19] = system: OVCAR-4; experiment: as above; details: Homo sapiens
[20] = system: OVCAR-5; experiment: as above; details: Homo sapiens
[21] = system: SK-OV-3; experiment: as above; details: Homo sapiens
[22] = system: 786-0; experiment: as above; details: Homo sapiens
[23] = system: CAKI-1; experiment: as above; details: Homo sapiens
[24] = system: TK-10; experiment: as above; details: Homo sapiens
[25] = system: T-47D; experiment: as above; details: Homo sapiens, T47D

`Cc1[nH]c(=S)sc1C(=O)/C=C/c1cccc([N+](=O)[O-])c1` [2h, (E)-1-(4-Methyl-2-Thioxo-2,3-Dihydrothiazol-5-yl)-3-(3-Nitrophenyl)Prop-2-En-1-One] was tested, and the activity at 10 µM ([1]; Homo sapiens, 48 h, MDA-MB-468, dose of 10 μM, read-out: Growth Percentage) was -82.9%, the IC50 ([1]; Homo sapiens, MDA-MB-468, MDA-MB-468, Breast Cancer, five dose) was 7.76 µM and the GI50 ([1]; Homo sapiens, MDA-MB-468, Breast Cancer, five dose) was 2950 nM. The CC50 ([1]; Homo sapiens, MDA-MB-468, Breast Cancer, five dose, read-out: LC50 (the source's name)) was 40.7 µM, the TGI ([1]; MDA-MB-468, Breast Cancer, five dose) was 10.72 µM and the GI50 ([2]; OVCAR-3) was 2400 nM. The activity at 10 µM ([2]; OVCAR-3, 48 h, read-out: Growth Percentage) was -79.5%, the IC50 ([2]; OVCAR-3, five-dose, Ovarian Cancer OVCAR-3) was 4.37 µM and the CC50 ([2]; OVCAR-3, read-out: LC50) was 24 µM. The IC (TGI) ([2]; OVCAR-3, read-out: TGI) was 6.46 µM, the GI50 ([3]; HL-60) was 1950 nM and the IC50 ([3]; HL-60) was 3.31 µM. It also gave an activity at 10 µM ([3]; HL-60, 48 h, read-out: Growth Percentage) of 5.25%, a CC50 ([3]; HL-60, read-out: LC50) greater than 100 µM and an IC (TGI) ([3]; HL-60, read-out: TGI) of 5.75 µM. For the same compound, the GI50 ([4]; A549) was 3.24 µM, the IC50 ([4]; A549) was 4.47 µM and the activity at 10 µM ([4]; A549, 48 h, read-out: Growth Percentage) was 19.5%. It also gave a CC50 ([4]; A549, read-out: LC50) of 55 µM, an IC (TGI) ([4]; A549, read-out: TGI) of 12 µM and a GI50 ([5]; HOP-62) of 3.98 µM. For the same compound, the IC50 ([5]; HOP-62) was 6.76 µM, the activity at 10 µM ([5]; HOP-62, 48 h, read-out: Growth Percentage) was 0.68% and the CC50 ([5]; HOP-62, read-out: LC50) was 40.7 µM. The IC (TGI) ([5]; HOP-62, read-out: TGI) was 12.3 µM, the GI50 ([6]; HOP-92) was 3.89 µM and the IC50 ([6]; HOP-92) was 22.4 µM. For the same compound, the CC50 ([6]; HOP-92, read-out: LC50) was 44.7 µM, the IC (TGI) ([6]; HOP-92, read-out: TGI) was 16.6 µM and the GI50 ([7]; NCI-H460) was 3.63 µM. For the same compound, the IC50 ([7]; NCI-H460) was 4.27 µM, the activity at 10 µM ([7]; NCI-H460, 48 h, read-out: Growth Percentage) was -30.7% and the CC50 ([7]; NCI-H460, read-out: LC50) was 55 µM. For the same compound, the IC (TGI) ([7]; NCI-H460, read-out: TGI) was 13.8 µM, the GI50 ([8]; HT-29) was 5.5 µM and the IC50 ([8]; HT-29) was 7.24 µM. The activity at 10 µM ([8]; HT-29, 48 h, read-out: Growth Percentage) was 20.4%, the CC50 ([8]; HT-29, read-out: LC50) was 60.3 µM and the IC (TGI) ([8]; HT-29, read-out: TGI) was 19.9 µM. For the same compound, the GI50 ([9]; KM12) was 3.63 µM, the IC50 ([9]; KM12) was 5.37 µM and the activity at 10 µM ([9]; KM12, 48 h, read-out: Growth Percentage) was -78.4%. For the same compound, the CC50 ([9]; KM12, read-out: LC50) was 42.7 µM, the IC (TGI) ([9]; KM12, read-out: TGI) was 13.2 µM and the GI50 ([10]; SW-620) was 3.39 µM. It also gave an IC50 ([10]; SW-620) of 4.07 µM, an activity at 10 µM ([10]; SW-620, 48 h, read-out: Growth Percentage) of -37.8% and a CC50 ([10]; SW-620, read-out: LC50) of 45.7 µM. It also gave an IC (TGI) ([10]; SW-620, read-out: TGI) of 11 µM, a GI50 ([11]; SF-295) of 3.63 µM and an IC50 ([11]; SF-295) of 8.71 µM. For the same compound, the activity at 10 µM ([11]; SF-295, 48 h, read-out: Growth Percentage) was 4.14%, the CC50 ([11]; SF-295, read-out: LC50) was 39.8 µM and the IC (TGI) ([11]; SF-295, read-out: TGI) was 14.8 µM. For the same compound, the GI50 ([12]; Homo sapiens, SNB-75) was 2290 nM, the IC50 ([12]; Homo sapiens, SNB-75) was 8.51 µM and the CC50 ([12]; Homo sapiens, SNB-75, read-out: LC50) was 27.5 µM. It also gave a TGI ([12]; five-dose, CNS Cancer SNB-75) of 7.41 µM, a GI50 ([13]; U-251) of 1740 nM and an IC50 ([13]; U-251) of 3.09 µM. It also gave an activity at 10 µM ([13]; U-251, 48 h, read-out: Growth Percentage) of -76%, a CC50 ([13]; U-251, read-out: LC50) of 5.89 µM and an IC (TGI) ([13]; U-251, read-out: TGI) of 3.24 µM. It also gave a GI50 ([14]; MDA-MB-435) of 4.57 µM, an IC50 ([14]; MDA-MB-435) of 7.41 µM and an activity at 10 µM ([14]; MDA-MB-435, 48 h, read-out: Growth Percentage) of -37%. The CC50 ([14]; MDA-MB-435, read-out: LC50) was 44.7 µM, the IC (TGI) ([14]; MDA-MB-435, read-out: TGI) was 17 µM and the GI50 ([15]; SK-MEL-2) was 12.6 µM. It also gave an IC50 ([15]; SK-MEL-2) of 26.9 µM, an activity at 10 µM ([15]; SK-MEL-2, 48 h, read-out: Growth Percentage) of 16.9% and a CC50 ([15]; SK-MEL-2, read-out: LC50) of 53.7 µM. It also gave an IC (TGI) ([15]; SK-MEL-2, read-out: TGI) of 26.3 µM, a GI50 ([16]; SK-MEL-28) of 5.5 µM and an IC50 ([16]; SK-MEL-28) of 13.2 µM. The activity at 10 µM ([16]; SK-MEL-28, 48 h, read-out: Growth Percentage) was -47%, the CC50 ([16]; SK-MEL-28, read-out: LC50) was 44.7 µM and the IC (TGI) ([16]; SK-MEL-28, read-out: TGI) was 18.2 µM. For the same compound, the GI50 ([17]; UACC-62) was 3.55 µM, the IC50 ([17]; UACC-62) was 7.94 µM and the activity at 10 µM ([17]; UACC-62, 48 h, read-out: Growth Percentage) was -56.7%. For the same compound, the CC50 ([17]; UACC-62, read-out: LC50) was 41.7 µM, the IC (TGI) ([17]; UACC-62, read-out: TGI) was 15.8 µM and the GI50 ([18]; IGROV-1) was 3.02 µM. For the same compound, the IC50 ([18]; IGROV-1) was 4.9 µM, the activity at 10 µM ([18]; IGROV-1, 48 h, read-out: Growth Percentage) was 10.2% and the CC50 ([18]; IGROV-1, read-out: LC50) was 47.9 µM. The IC (TGI) ([18]; IGROV-1, read-out: TGI) was 12.3 µM, the GI50 ([19]; OVCAR-4) was 11 µM and the IC50 ([19]; OVCAR-4) was 20.4 µM. The activity at 10 µM ([19]; OVCAR-4, 48 h, read-out: Growth Percentage) was 13.1%, the CC50 ([19]; OVCAR-4, read-out: LC50) was 51.3 µM and the IC (TGI) ([19]; OVCAR-4, read-out: TGI) was 24 µM. The GI50 ([20]; OVCAR-5) was 3.63 µM, the IC50 ([20]; OVCAR-5) was 9.12 µM and the activity at 10 µM ([20]; OVCAR-5, 48 h, read-out: Growth Percentage) was -37.4%. For the same compound, the CC50 ([20]; OVCAR-5, read-out: LC50) was 38.9 µM, the IC (TGI) ([20]; OVCAR-5, read-out: TGI) was 13.8 µM and the GI50 ([21]; SK-OV-3) was 5.89 µM. The IC50 ([21]; SK-OV-3) was 15.1 µM, the activity at 10 µM ([21]; SK-OV-3, 48 h, read-out: Growth Percentage) was 44.6% and the CC50 ([21]; SK-OV-3, read-out: LC50) was 45.7 µM. It also gave an IC (TGI) ([21]; SK-OV-3, read-out: TGI) of 18.6 µM, a GI50 ([22]; 786-0) of 3.98 µM and an IC50 ([22]; 786-0) of 6.31 µM. It also gave an activity at 10 µM ([22]; 786-0, 48 h, read-out: Growth Percentage) of -10.8%, a CC50 ([22]; 786-0, read-out: LC50) of 50.1 µM and an IC (TGI) ([22]; 786-0, read-out: TGI) of 15.8 µM. It also gave a GI50 ([23]; CAKI-1) of 10.5 µM, an IC50 ([23]; CAKI-1) of 20.4 µM and an activity at 10 µM ([23]; CAKI-1, 48 h, read-out: Growth Percentage) of -56.5%. The CC50 ([23]; CAKI-1, read-out: LC50) was 51.3 µM, the IC (TGI) ([23]; CAKI-1, read-out: TGI) was 22.9 µM and the GI50 ([24]; TK-10) was 11.2 µM. For the same compound, the IC50 ([24]; TK-10) was 22.9 µM, the CC50 ([24]; TK-10, read-out: LC50) was 50.1 µM and the IC (TGI) ([24]; TK-10, read-out: TGI) was 23.4 µM. The GI50 [25] was 2000 nM, the IC50 [25] was 4.9 µM and the activity at 10 µM ([25]; 48 h, read-out: Growth Percentage) was -56.6%. For the same compound, the CC50 ([25]; read-out: LC50) was 66.1 µM and the IC (TGI) ([25]; read-out: TGI) was 7.08 µM.
